Literature values, collected in US20130195996A1, “METHOD OF PRODUCING PLEURODESIS” (CAREFUSION 2200, INC., priority 2010, published 2013).

Legend:
[1] = tested on: rabbits
[2] = tested on: rabbits; details: single dosage administration of 0.1% silver nitrate (Marchi et al. 2005)
[3] = known methods, high dosages such as 10% concentration (typically 200 mg AgNO3), single dosage
[4] = 2 mL of 0.25% silver nitrate (Vargas et al. 2001)

O=[N+]([O-])[O-].[Ag+] [silver nitrate]
persistence of pleurodesis result [1, 4]: persists for at least a year | pleurodesis result [1, 4]: relatively superior pleurodesis result | pleurodesis ([1]; intrapleural injection of 0.5% silver nitrate (Texeira et al. 2003)): significant pleurodesis | sclerosing effects ([1]; single intrapleural injection of 0.25% silver nitrate (Texeira et al. 2003)): no sclerosing effects | pleural inflammation [2]: relatively intense pleural inflammation | adverse effects associated with injection into the pleural space [3]: severe pain, fever, and relatively large amount of effusion
